Our source for the IC50 values is patent publication US12624018B1, “Inhibitors of RIPK2 and medical uses thereof” (Odyssey Therapeutics, Inc., priority 2022, dated 2026).

Where two headings read alike, the source gives them in different places.

One assay concerns the target T1, RIPK2 enzyme (Homo sapiens, UniProt O43353).
T1 construct: purchased Carna 09-128
Briefly: RIPK2 inhibition (ADP-Glo Kinase Assay). The assay is classed as biochemical. To be noted: RIPK2 5 nM, ATP 150 μM, MBP substrate, read-out: RIPK2 IC50. Put shortly:
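Human RIPK2 (5 nM) preincubated with compound 30 min at room temperature in 50 mM HEPES pH 7.5, 10 mM MgCl2, 2 mM DTT, 1 mM EGTA, 0.01% Brij-35, 0.05% BSA; native swine MBP as substrate. ADP formed quantified by ADP-Glo luminescence; percent inhibition relative to DMSO and no-enzyme controls.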
Background: ADP-Glo turns the ADP formed in a reaction into a luminescent signal.

In the next assay the test system is human NOD2 signaling. Nature of the assay: Inhibition of human NOD2 signaling in HEK-Blue-hNOD2 cells (L18-MDP stimulated, SEAP reporter). The assay is classed as cell-based. To be noted: NOD2 ligand stimulation, SEAP reporter, read-out: hNOD2 IC50. How it is done:
Materials: Human NOD32-expressing 1TEK293 cells, HEK-Blue™-hNOD2 cells, were developed by Invivogen (catalogue number: hkb-hnod2) using co-transfection of the human NOD2 gene and an optimized secreted embryonic alkaline phosphatase (SEAP) reporter gene into HTEK293 cells. The cell maintenance medium consisted of DMEM (Giboc, 21063-029), heat inactivated FBS, penicillin (100 U/mL), streptomycin (100 μg/mL), Normocin (100 μg/mL), Blasticidin (30 μg/mL), and Zeocin (100 μg/mL). HEK-Blue™-hNOD2 cells were transferred to assay medium consisting of DMEM (Giboc, 21063-029), heat inactivated FBS, penicillin (100 U/mL) and streptomycin (100 μg/mL) prior to stimulation. Stimulation with a NOD2 ligand, L18-MDP (Invivogen, catalogue number: tlrl-lmdp) activated NF-κB and AP-1 which induced the production of SEAP. Levels of SEAP were determined with HEK-Blue™ Detection (referred to as QUANTI-Blue solution), a cell culture medium that allows for real-time detection of SEAP. QUANTI-Blue solution was prepared by adding 1 mL of QB reagent and 1 mL of QB buffer to 98 mL of sterile H2O. Test compounds were prepared into a 10 mM DMSO solution and were serially diluted into 10 points using a 3-fold dilution in a 384 well plate using a TECAN EVO200.
Method: In a 384 well plate, 40 nL of test compound was dispensed using Echo550. HEK-Blue™-hNOD2 cells (Invivogen) were prepared into a cell suspension and 40 μL of the cell suspension (12500 cells per well) was dispensed into the 384 well plate. To activate NOD2 signaling, 40 nL of L18-MDP (final concentration of 0.5 ng/mL) was added and the plate was incubated at 37° C. in a CO2 incubator for 24 hours. After the 24-hour incubation, 5 μL of the induced HEK-Blue hNOD2 cell supernatant was transferred to a new 384-well plate, centrifuged, and 45 μL of QUANTI-Blue solution was added per well and incubated for 3 hours at 37° C. SEAP levels were measured using an Ensight at 620 nm. Percent inhibition of NOD2 signaling was determined using the following equation: (high control−test compound signal)/(High control−low control)×100. The reaction high control was determined using wells with DMSO, cells, L18-MDP, and QUANTI-Blue solution. The reaction low control was determined using wells with DMSO, cells, and QUANTI-Blue solution. 4-parametric curve fit was used to determine the test compound concentration that results in 50% reduction of L18-MDP-driven human NOD2 signaling.
Using the assay described above, inhibition of hNOD2 signaling was also evaluated for GSK 2983559 (Haile at al., J. Med. Chem. 2019, 62, 14, 6482-6494), a known RIPK2 kinase inhibitor: […]

The mark [1] stands for this setting: Homo sapiens, HEK-Blue hNOD2, HEK-Blue-hNOD2 cells.

T1 sequence (O43353 1-299 limits assumed): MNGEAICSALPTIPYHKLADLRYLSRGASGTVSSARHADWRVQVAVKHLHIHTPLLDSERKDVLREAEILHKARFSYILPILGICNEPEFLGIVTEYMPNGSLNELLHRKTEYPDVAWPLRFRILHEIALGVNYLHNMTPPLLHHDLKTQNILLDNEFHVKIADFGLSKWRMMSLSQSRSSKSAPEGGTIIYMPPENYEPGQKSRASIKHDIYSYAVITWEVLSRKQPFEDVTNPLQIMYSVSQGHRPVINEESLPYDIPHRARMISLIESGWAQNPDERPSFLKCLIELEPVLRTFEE

Take `Cc1c(Oc2ccnc3ccc(S(=N)(=O)C4CCC4)cc23)ccc(CC(=O)Nc2cnn(C(C)(C)C)c2)c1F` (single isomer, unassigned) [Compound 542, N-(1-(tert-butyl)-1H-pyrazol-4-yl)-2-(4-((6-(cyclobutanesulf-onimidoyl)quinolin-4-yl)oxy)-2-fluoro-3-methylphenyl) acetamide]: the IC50 (usually the point on the concentration scale where inhibition reaches its midpoint) was below 2.5 nM at RIPK2 enzyme and 0.2 nM in the assay on human NOD2 signaling (HEK-Blue-hNOD2 cells).

Consider `Cc1cc(CC(=O)Nc2cnn(C(C)(C)C)c2)ccc1Oc1ccnc2ccc(S(=N)(=O)C(C)(C)C)cc12` (single isomer, unassigned) [Compound 549, N-(1-(tert-butyl)-1H-pyrazol-4-yl)-2-(3-methyl-4-((6-(2-methylpropan-2-ylsulfonimidoyl)quinolin-4-yl)oxy)phenyl) acetamide], for which the values for the IC50 on RIPK2 enzyme and in the assay with human NOD2 signaling (setting [1]) were below 2.5 nM and 18.2 nM, respectively.

Turning to `Cc1cc(CC(=O)Nc2cnn(C(C)(C)C)c2)ccc1Oc1ccnc2ccc(S(=N)(=O)C(C)(C)C)cc12` (single isomer, unassigned) [Compound 550, N-(1-(tert-butyl)-1H-pyrazol-4-yl)-2-(3-methyl-4-((6-(2-methylpropan-2-ylsulfonimidoyl)quinolin-4-yl)oxy)phenyl) acetamide], the IC50 at RIPK2 enzyme is below 2.5 nM; in the assay with human NOD2 signaling (HEK-Blue-hNOD2 cells), 11 nM.

As for `Cc1cc(CC(=O)Nc2cnn(C(C)(C)C)c2)ccc1Oc1ccnc2cc(F)c(S(=N)(=O)C3CC3)cc12` (single isomer, unassigned) [Compound 553, N-(1-(tert-butyl)-1H-pyrazol-4-yl)-2-(4-((6-(cyclopropane-sulfonimidoyl)-7-fluoroquinolin-4-yl)oxy)-3-methylphenyl) acetamide], the IC50 on RIPK2 enzyme was below 2.5 nM; in the assay on human NOD2 signaling (setting [1]) it was 5.6 nM.

As to `Cc1cc(CC(=O)Nc2cnn(C(C)(C)C)c2)ccc1Oc1ccnc2cc(F)c(S(=N)(=O)C3CC3)cc12` (single isomer, unassigned) [Compound 554, N-(1-(tert-butyl)-1H-pyrazol-4-yl)-2-(4-((6-(cyclopropane-sulfonimidoyl)-7-fluoroquinolin-4-yl)oxy)-3-methylphenyl) acetamide], the results for the IC50 at RIPK2 enzyme and in the assay on human NOD2 signaling (HEK-Blue-hNOD2 cells) were below 2.5 nM and 4.9 nM, respectively.

Regarding `CCS(=N)(=O)c1ccc2nccc(Oc3ccc(CC(=O)Nc4cnn(C56CC(C5)C6)c4)cc3C)c2c1` (single isomer, unassigned) [Compound 593, N-(1-(bicyclo[1.1.1]pentan-1-yl)-1H-pyrazol-4-yl)-2-(4-((6-(ethylsulfonimidoyl)quinolin-4-yl)oxy)-3-methylphenyl) acetamide], the figures for the IC50 on RIPK2 enzyme and in the assay with human NOD2 signaling (setting [1]) were below 2.5 nM and 6.7 nM, respectively.

Turning to `Cc1cc(CC(=O)Nc2cnn(C(C)C(F)(F)F)c2)ccc1Oc1ccnc2ccc(S(C)(=O)=O)cc12` (single isomer, unassigned) [Compound 594, 2-(3-methyl-4-((6-(methylsulfonyl)quinolin-4-yl)oxy)phenyl)-N-(1-(1,1,1-trifluoropropan-2-yl)-1H-pyrazol-4-yl)acetamide], the values for the IC50 on RIPK2 enzyme and in the assay on human NOD2 signaling (setting [1]) were below 2.5 nM and 27 nM, respectively.

Consider `Cc1cc(CC(=O)Nc2cnn(C(C)C(F)(F)F)c2)ccc1Oc1ccnc2ccc(S(C)(=O)=O)cc12` (single isomer, unassigned) [Compound 595, 2-(3-methyl-4-((6-(methylsulfonyl)quinolin-4-yl)oxy)phenyl)-N-(1-(1,1,1-trifluoropropan-2-yl)-1H-pyrazol-4-yl)acetamide], for which the IC50 is below 2.5 nM on RIPK2 enzyme and 19.3 nM with human NOD2 signaling (HEK-Blue-hNOD2 cells).

With `Cc1cc(CC(=O)Nc2cnn(C(C)(C)C)c2)ccc1Oc1ccnc2ccc(C(O)C(N)=O)cc12` (single isomer, unassigned) [Compound 609, 2-(4-((6-(2-amino-1-hydroxy-2-oxoethyl)quinolin-4-yl)oxy)-3-methylphenyl)-N-(1-(tert-butyl)-1H-pyrazol-4-yl)acetamide], the results for the IC50 at RIPK2 enzyme and in the assay on human NOD2 signaling (setting [1]) were below 2.5 nM and 46.3 nM, respectively.

As for `Cc1cc(CC(=O)Nc2cnn(C(C)(C)C)c2)ccc1Oc1ccnc2ccc(C(C)(O)C(N)=O)cc12` (single isomer, unassigned) [Compound 615, 2-(4-(4-(2-((1-(tert-butyl)-1H-pyrazol-4-yl)amino)-2-oxoethyl)-2-methylphenoxy)quinolin-6-yl)-2-hydroxypropanamide], the IC50 was determined as 2.8 nM on RIPK2 enzyme and 17.5 nM in the assay on human NOD2 signaling (setting [1]).

For the compound `Cc1cc(CC(=O)Nc2cnn(C(C)(C)C)c2)ccc1Oc1ccnc2ccc(C(C)(O)C(N)=O)cc12` (single isomer, unassigned) [Compound 616, 2-(4-(4-(2-((1-(tert-butyl)-1H-pyrazol-4-yl)amino)-2-oxoethyl)-2-methylphenoxy)quinolin-6-yl)-2-hydroxypropanamide], the IC50 on RIPK2 enzyme was below 2.5 nM; in the assay on human NOD2 signaling (HEK-Blue-hNOD2 cells), 22.4 nM.

Take `Cc1cc(CC(=O)Nc2cc(C(C)(C)C)[nH]n2)ccc1Oc1ccnc2cc(F)c(S(C)(=N)=O)cc12` (single isomer, unassigned) [Compound 620, N-(5-(tert-butyl)-1H-pyrazol-3-yl)-2-(4-((7-fluoro-6-(S-methylsulfonimidoyl)quinolin-4-yl)oxy)-3-methylphenyl) acetamide]: the IC50 on RIPK2 enzyme is below 2.5 nM; in the assay on human NOD2 signaling (setting [1]), 6.7 nM.

In the case of `Cc1cc(CC(=O)Nc2cc(C(C)(C)C)[nH]n2)ccc1Oc1ccnc2cc(F)c(S(C)(=N)=O)cc12` (single isomer, unassigned) [Compound 621, N-(5-(tert-butyl)-1H-pyrazol-3-yl)-2-(4-((7-fluoro-6-(S-methylsulfonimidoyl)quinolin-4-yl)oxy)-3-methylphenyl) acetamide], the values for the IC50 at RIPK2 enzyme and with human NOD2 signaling (HEK-Blue-hNOD2 cells) were below 2.5 nM and 11.7 nM, respectively.

On to `CC(C)(C)n1cc(NC(=O)Cc2ccc(Oc3ccnc4ccc(C(N)=O)cc34)c(C(F)F)c2)cn1` [Compound 462, 4-(4-(2-((1-(tert-butyl)-1H-pyrazol-4-yl)amino)-2-oxoethyl)-2-(difluoromethyl)phenoxy) quinoline-6-carboxamide], for which the IC50 at RIPK2 enzyme was below 2.5 nM; in the assay on human NOD2 signaling (setting [1]), 7.5 nM.

As to `CNC(=O)c1ccc2nccc(Oc3ccc(CC(=O)Nc4cnn(C(C)(C)C)c4)cc3C(F)F)c2c1` [Compound 463, 4-(4-(2-((1-(tert-butyl)-1H-pyrazol-4-yl)amino)-2-oxoethyl)-2-(difluoromethyl)phenoxy)-N-methylquinoline-6-carboxamide], the IC50 is below 2.5 nM at RIPK2 enzyme and 4 nM in the assay on human NOD2 signaling (setting [1]).

Take `Cc1cc(CC(=O)Nc2cnn(C(C)(C)C)c2)c(F)cc1Oc1ccnc2ccc(-c3ncccc3C)cc12` [Compound 475, N-(1-(tert-butyl)-1H-pyrazol-4-yl)-2-(2-fluoro-5-methyl-4-((6-(3-methylpyridin-2-yl)quinolin-4-yl)oxy)phenyl)acetamide]: the IC50 on RIPK2 enzyme is 4.2 nM; with human NOD2 signaling (setting [1]) it was 54 nM.

Take `Cc1cc(CC(=O)Nc2cnn(C(C)(C)C)c2)c(F)cc1Oc1ccnc2ccc(-c3c[nH]nc3O)cc12` [Compound 478, N-(1-(tert-butyl)-1H-pyrazol-4-yl)-2-(2-fluoro-4-((6-(3-hydroxy-1H-pyrazol-4-yl)quinolin-4-yl)oxy)-5-methylphenyl)acetamide]: the IC50 is below 2.5 nM on RIPK2 enzyme and 26 nM with human NOD2 signaling (setting [1]).

As for `COc1n[nH]cc1-c1ccc2nccc(Oc3cc(F)c(CC(=O)Nc4cnn(C(C)(C)C)c4)cc3C)c2c1` [Compound 480, N-(1-(tert-butyl)-1H-pyrazol-4-yl)-2-(2-fluoro-4-((6-(3-methoxy-1H-pyrazol-4-yl)quinolin-4-yl)oxy)-5-methylphenyl)acetamide], the IC50 was below 2.5 nM at RIPK2 enzyme and 0.8 nM in the assay on human NOD2 signaling (setting [1]).
